Holding throughout (assay): 3H-TdR (3H-thymidine) incorporation assay at 72 hr
One test deals with H-460. Type of test: cell-based, Human. Conditions: Homo sapiens.
The next test relates to MCF-7. Type of test: cell-based, Human. The note with it: Homo sapiens.
Another test concerns SF-268. Type of test: cell-based, Human. The note with it: Homo sapiens.
For another test, the system named is CCRF-CEM. Type of test: cell-based. Conditions: Homo sapiens, CCRF-CEM. As for the experimental part: (§1) Table of IC50 Values (μM) for Controls
(§2) Exposition of 24 hr to drug, wash, incubated for another 48 hr (total of 72 hr assay)
(§3) (3H-Thymidine Incorporation Assay)

The subject of another test is CEM/dCK-. Type of test: cell-based. The note with it: for IC50: Homo sapiens, CCRF-CEM; for Factor* (Resistance Factor = Ratio of dCK- on Wild-type CCRF-CEM): ratio of IC50 CEM/dCK- to CCRF-CEM, 24 h. As for the experimental part: as §1, §2, §3
The mark [1] stands for this setting: NCI-H460, read-out: IC50 H-460 24 h, 24 h drug exposure, wash, another 48 hr, 3H-TdR incorporation at 72 hr.
The mark [2] stands for this setting: MCF7, read-out: IC50 MCF-7 24 h, 24 h drug exposure, wash, another 48 hr, 3H-TdR incorporation at 72 hr.
[3] abbreviates: SF-268, read-out: IC50 SF-268 24 h, 24 h drug exposure, wash, another 48 hr, 3H-TdR incorporation at 72 hr.
Where [4] appears, read: read-out: IC50 CCRF-CEM 24 h, 24 h drug exposure, wash, another 48 hr, 3H-TdR incorporation at 72 hr.
Where [5] appears, read: read-out: IC50 CEM/dCK- 24 h, 24 h drug exposure, wash, another 48 hr, deoxycytidine kinase-deficient CCRF-CEM.

Read-outs that look alike come from different tables or passages of the source.

In the case of `CCCCCCOC(=O)OC[C@H]1OC[C@@H](n2ccc(NC(=O)OCc3ccccc3)nc2=O)O1` [Compound 122, CARBONIC ACID 4-(4- BENZYLOXYCARBONYLAMINO- 2-OXO-2H-PYRIMIDIN-1- YL)-[1,3]DIOXOLAN-2- YLMETHYL ESTER HEXYL ESTER], the IC50 with H-460 (setting [1]) was 1900 nM; with MCF-7 (setting [2]), 210 nM; in the test on SF-268 (setting [3]), 570 nM; with CCRF-CEM (setting [4]) it was 710 nM; in the test on CEM/dCK- (setting [5]), 61000 nM. Further, in the test on CEM/dCK-, the “Factor* (Resistance Factor = Ratio of dCK- on Wild-type CCRF-CEM)” value is given as 86.
Consider `Nc1ccn([C@@H]2CO[C@H](COC3OCCO3)O2)c(=O)n1` [Compound 40, 4-AMINO-1-[2- ([1,3]DIOXOLAN-2- YLOXYMETHYL)- [1,3]DIOXOLAN-4-YL]-1H- PYRIMIDIN-2-ONE], for which the IC50 in the test on H-460 (setting [1]) is 320 nM; in the test on MCF-7 (setting [2]) it was 70 nM; in the test on SF-268 (setting [3]), 900 nM; in the test with CCRF-CEM (setting [4]) it was 89 nM; in the test with CEM/dCK- (setting [5]), above 100000 nM. The “Factor* (Resistance Factor = Ratio of dCK- on Wild-type CCRF-CEM)” value in the test with CEM/dCK- is listed as 1,123.
As to `CCOC(=O)Nc1ccn([C@@H]2CO[C@H](CO)O2)c(=O)n1` [Compound 45, [1-(2-HYDROXYMETHYL- [1,3]DIOXOLAN-4-YL)-2- OXO-1,2-DIHYDRO- PYRIMIDIN-4-YL]- CARBAMIC ACID ETHYL ESTER], the IC50 in the test with H-460 (setting [1]) was 3200 nM; in the test on MCF-7 (setting [2]), 2700 nM; in the test on SF-268 (setting [3]), 9000 nM; with CCRF-CEM (setting [4]), 1600 nM; with CEM/dCK- (setting [5]) it was above 100000 nM. Also, in the test with CEM/dCK-, the “Factor* (Resistance Factor = Ratio of dCK- on Wild-type CCRF-CEM)” value amounted to 63.
As to `CCCCCCOC(=O)Nc1ccn([C@@H]2CO[C@H](COC(=O)OCCCCCC)O2)c(=O)n1` [Compound 150, CARBONIC ACID HEXYL ESTER 4-(4- HEXYLOXYCARBONYLAMINO- 2-OXO-2H-PYRIMIDIN-1- YL)-[1,3]DIOXOLAN-2- YLMETHYL ESTER], the IC50 is 960 nM in the test on H-460 (setting [1]); 1600 nM in the test on MCF-7 (setting [2]); 1300 nM in the test on SF-268 (setting [3]); 130 nM in the test on CCRF-CEM (setting [4]); 90000 nM in the test with CEM/dCK- (setting [5]). For the same compound, the “Factor* (Resistance Factor = Ratio of dCK- on Wild-type CCRF-CEM)” value in the test with CEM/dCK- is 692.
Consider `COc1ccc(C(OC[C@H]2OC[C@@H](n3ccc(N)nc3=O)O2)(c2ccccc2)c2ccc(OC)cc2)cc1` [Compound 123, 4-AMINO-1-{2-[BIS-(4- METHOXY-PHENYL)-PHENYL- METHOXYMETHYL]- [1,3]DIOXOLAN-4-YL}-1H- PYRIMIDIN-2-ONE], for which the IC50 with H-460 (setting [1]) is 1000 nM; in the test with MCF-7 (setting [2]), 1400 nM; with SF-268 (setting [3]) it was 2000 nM; with CCRF-CEM (setting [4]), 870 nM; in the test with CEM/dCK- (setting [5]), 15000 nM. Further, in the test with CEM/dCK-, the “Factor* (Resistance Factor = Ratio of dCK- on Wild-type CCRF-CEM)” value came to 17.
In the case of `CC(C)(C)C(=O)Nc1ccn([C@@H]2CO[C@H](CO)O2)c(=O)n1` [Compound 49, N-[1-(2-HYDROXYMETHYL- [1,3]DIOXOLAN-4-YL)- CYTOSYL]-2,2-DIMETHYL- PROPIONAMIDE], the IC50 is 4500 nM in the test on H-460 (setting [1]); 8800 nM in the test with MCF-7 (setting [2]); 7100 nM in the test on SF-268 (setting [3]); 570 nM in the test with CCRF-CEM (setting [4]); above 100000 nM in the test on CEM/dCK- (setting [5]). In addition, the “Factor* (Resistance Factor = Ratio of dCK- on Wild-type CCRF-CEM)” value in the test with CEM/dCK- was 175.
For `Nc1ccn([C@@H]2CO[C@H](COC(=O)Cc3ccccc3)O2)c(=O)n1` [Compound 52, (2S,4S)-2- PHENYLACETOXYMETHYL-4- CYTOSIN-1′-YL-1,3- DIOXOLANE], the IC50 with H-460 (NCI-H460, read-out: IC50 H-460 24 h) is 6.8 nM; with MCF-7 (MCF7, read-out: IC50 MCF-7 24 h), 88 nM; with SF-268 (SF-268, read-out: IC50 SF-268 24 h), 32 nM; in the test on CCRF-CEM (read-out: IC50 CCRF-CEM 24 h) it was 1.2 nM; in the test on CEM/dCK- (read-out: IC50 CEM/dCK- 24 h), 480 nM. The “Factor* (Resistance Factor = Ratio of dCK- on Wild-type CCRF-CEM)” value in the test with CEM/dCK- stood at 400.
Turning to `Nc1ccn([C@@H]2CO[C@H](COC/C=C/c3ccccc3)O2)c(=O)n1.O=C(O)C(F)(F)F` [Compound 90, 4-AMINO-1-[2-(3- CINNAMYLOXYMETHYL)- [1,3]DIOXOLAN-4-YL]-1H- PYRIMIDIN-2-ONE TRIFLUOROACETATE SALT], the IC50 was 95000 nM in the test on H-460 (setting [1]); 61000 nM with MCF-7 (setting [2]); above 100000 nM in the test with SF-268 (setting [3]); 65000 nM in the test with CCRF-CEM (setting [4]); above 100000 nM in the test with CEM/dCK- (setting [5]). Besides, in the test with CEM/dCK-, the “Factor* (Resistance Factor = Ratio of dCK- on Wild-type CCRF-CEM)” value amounted to 1.5.

The record behind these values is patent US20030013660A1, “Dioxolane analogs for improved inter-cellular delivery” (Shire BioChem Inc., priority 2000, published 2003).
